Measured values reported in PubChem BioAssay AID2060909 (Molecular Pharmacology Branch, DTP, NCI, 2025).

System: 362531-283-R-J2-PDC complex spheroid viability
Test: Anticancer human tumor 362531-283-R-J2-PDC patient-derived colon adenocarcinoma cell line growth inhibition [RAS]
Conditions: for IC50: curve of first compound; for viability, T/C: stronger effect = lower value
Outline: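 Tumour cells grown as complex spheroids with HUVEC endothelial cells and mesenchymal stem cells, treated with RAS pathway inhibitor combinations. Each agent spans half-log steps from near clinical Cmax, or 10 microM where Cmax is unknown.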

[1] = second compound 0.000949 µM, first compound 0.0316 µM
[2] = second compound 0.000949 µM, first compound 0.1 µM
[3] = second compound 0.000949 µM, first compound 0.316 µM
[4] = second compound 0.000949 µM, first compound 1 µM
[5] = second compound 0.000949 µM, first compound 3.16 µM
[6] = second compound 0.000949 µM, first compound 10 µM
[7] = second compound 0.003 µM, first compound 0.0316 µM
[8] = second compound 0.003 µM, first compound 0.1 µM
[9] = second compound 0.003 µM, first compound 0.316 µM
[10] = second compound 0.003 µM, first compound 1 µM
[11] = second compound 0.003 µM, first compound 3.16 µM
[12] = second compound 0.003 µM, first compound 10 µM
[13] = second compound 0.00949 µM, first compound 0.0316 µM
[14] = second compound 0.00949 µM, first compound 0.1 µM
[15] = second compound 0.00949 µM, first compound 0.316 µM
[16] = second compound 0.00949 µM, first compound 1 µM
[17] = second compound 0.00949 µM, first compound 3.16 µM
[18] = second compound 0.00949 µM, first compound 10 µM
[19] = second compound 0.03 µM, first compound 0.0316 µM
[20] = second compound 0.03 µM, first compound 0.1 µM
[21] = second compound 0.03 µM, first compound 0.316 µM
[22] = second compound 0.03 µM, first compound 1 µM
[23] = second compound 0.03 µM, first compound 3.16 µM
[24] = second compound 0.03 µM, first compound 10 µM
[25] = second compound 0.0949 µM, first compound 0.0316 µM
[26] = second compound 0.0949 µM, first compound 0.1 µM
[27] = second compound 0.0949 µM, first compound 0.316 µM
[28] = second compound 0.0949 µM, first compound 1 µM
[29] = second compound 0.0949 µM, first compound 3.16 µM
[30] = second compound 0.0949 µM, first compound 10 µM
[31] = second compound 0.3 µM, first compound 0.0316 µM
[32] = second compound 0.3 µM, first compound 0.1 µM
[33] = second compound 0.3 µM, first compound 0.316 µM
[34] = second compound 0.3 µM, first compound 1 µM
[35] = second compound 0.3 µM, first compound 3.16 µM
[36] = second compound 0.3 µM, first compound 10 µM
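Note: spheroids exposed to the agents for 7 days before readout.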
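Throughout, for viability, T/C: luminescence viability as percent of DMSO vehicle control wells.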

Q: With CC(=O)OC12COC1CC(O)C1(C)C(=O)C(O)C3=C(C)C(OC(=O)C(O)C(NC(=O)OC(C)(C)C)c4ccccc4)CC(O)(C(OC(=O)c4ccccc4)C21)C3(C)C (stereo unspecified) + CCn1c(-c2cc(N3CCN(C)CC3)cnc2C(C)OC)c2c3cc(ccc31)-c1csc(n1)CC(NC(=O)C1CC1C)C(=O)N1CCCC(N1)C(=O)OCC(C)(C)C2 as the molecule, how does the IC50 (second compound 0.000949 µM) read?
A: 214 nM

Q: And the IC50 (second compound 0.003 µM)?
A: 215 nM

Q: What about the IC50 (second compound 0.00949 µM) of the same molecule?
A: 192 nM

Q: And the IC50 (second compound 0.03 µM)?
A: 164 nM

Q: And the IC50 (second compound 0.0949 µM)?
A: 137 nM

Q: What about the IC50 (second compound 0.3 µM) of the same molecule?
A: < 31.6 nM

Q: What about the viability, T/C [1] of the same molecule?
A: 92.9%

Q: And the viability, T/C [2]?
A: 95.2%

Q: What about the viability, T/C [3] of the same molecule?
A: 27.5%

Q: What about the viability, T/C [4] of the same molecule?
A: 16.7%

Q: What about the viability, T/C [5] of the same molecule?
A: 18.1%

Q: And the viability, T/C [6]?
A: 31.9%

Q: What about the viability, T/C [7] of the same molecule?
A: 103%

Q: And the viability, T/C [8]?
A: 92.7%

Q: And the viability, T/C [9]?
A: 28.7%

Q: And the viability, T/C [10]?
A: 13.6%

Q: What about the viability, T/C [11] of the same molecule?
A: 19.1%

Q: And the viability, T/C [12]?
A: 19.9%

Q: What about the viability, T/C [13] of the same molecule?
A: 94.2%

Q: What about the viability, T/C [14] of the same molecule?
A: 91%

Q: And the viability, T/C [15]?
A: 18.8%

Q: What about the viability, T/C [16] of the same molecule?
A: 12.9%

Q: What about the viability, T/C [17] of the same molecule?
A: 9.58%

Q: And the viability, T/C [18]?
A: 15.8%

Q: What about the viability, T/C [19] of the same molecule?
A: 76.8%

Q: And the viability, T/C [20]?
A: 77.5%

Q: And the viability, T/C [21]?
A: 14.2%

Q: What about the viability, T/C [22] of the same molecule?
A: 7.82%

Q: And the viability, T/C [23]?
A: 8.32%

Q: What about the viability, T/C [24] of the same molecule?
A: 11.6%

Q: And the viability, T/C [25]?
A: 68.7%

Q: What about the viability, T/C [26] of the same molecule?
A: 65.5%

Q: What about the viability, T/C [27] of the same molecule?
A: 9.07%

Q: What about the viability, T/C [28] of the same molecule?
A: 7.86%

Q: And the viability, T/C [29]?
A: 8.53%

Q: What about the viability, T/C [30] of the same molecule?
A: 7.69%

Q: What about the viability, T/C [31] of the same molecule?
A: 43.2%

Q: And the viability, T/C [32]?
A: 20.1%

Q: What about the viability, T/C [33] of the same molecule?
A: 7.36%

Q: And the viability, T/C [34]?
A: 4.87%

Q: And the viability, T/C [35]?
A: 5.33%

Q: And the viability, T/C [36]?
A: 4.75%

Q: Which IC50 (second compound 0.000949 µM) does the source give for NC1c2ccccc2OC12CCN(c1cnc3c(N4CCCc5ncccc54)n[nH]c3n1)CC2 (stereo unspecified) + CCn1c(-c2cc(N3CCN(C)CC3)cnc2C(C)OC)c2c3cc(ccc31)-c1csc(n1)CC(NC(=O)C1CC1C)C(=O)N1CCCC(N1)C(=O)OCC(C)(C)C2 here?
A: 2040 nM

Q: And the IC50 (second compound 0.003 µM)?
A: 968 nM

Q: And the IC50 (second compound 0.00949 µM)?
A: 450 nM

Q: What about the IC50 (second compound 0.03 µM) of the same molecule?
A: 152 nM

Q: And the IC50 (second compound 0.0949 µM)?
A: 40.1 nM

Q: And the IC50 (second compound 0.3 µM)?
A: < 31.6 nM

Q: And the viability, T/C [1]?
A: 93%

Q: And the viability, T/C [2]?
A: 97.3%

Q: What about the viability, T/C [3] of the same molecule?
A: 88%

Q: And the viability, T/C [4]?
A: 75.2%

Q: What about the viability, T/C [5] of the same molecule?
A: 34.6%

Q: What about the viability, T/C [6] of the same molecule?
A: 15.8%

Q: What about the viability, T/C [7] of the same molecule?
A: 95.2%

Q: What about the viability, T/C [8] of the same molecule?
A: 90.3%

Q: What about the viability, T/C [9] of the same molecule?
A: 81.8%

Q: And the viability, T/C [10]?
A: 50.8%

Q: And the viability, T/C [11]?
A: 8.91%

Q: And the viability, T/C [12]?
A: 4.54%

Q: And the viability, T/C [13]?
A: 91.7%

Q: And the viability, T/C [14]?
A: 96.4%

Q: And the viability, T/C [15]?
A: 67.1%

Q: What about the viability, T/C [16] of the same molecule?
A: 11%

Q: And the viability, T/C [17]?
A: 4.02%

Q: And the viability, T/C [18]?
A: 2.36%

Q: What about the viability, T/C [19] of the same molecule?
A: 94.4%

Q: What about the viability, T/C [20] of the same molecule?
A: 70.9%

Q: And the viability, T/C [21]?
A: 13%

Q: What about the viability, T/C [22] of the same molecule?
A: 7.15%

Q: And the viability, T/C [23]?
A: 5.36%

Q: What about the viability, T/C [24] of the same molecule?
A: 2.24%

Q: And the viability, T/C [25]?
A: 56.5%

Q: And the viability, T/C [26]?
A: 25.1%

Q: And the viability, T/C [27]?
A: 6.77%

Q: What about the viability, T/C [28] of the same molecule?
A: 4.69%

Q: What about the viability, T/C [29] of the same molecule?
A: 4.6%

Q: And the viability, T/C [30]?
A: 2.33%

Q: What about the viability, T/C [31] of the same molecule?
A: 16.5%

Q: What about the viability, T/C [32] of the same molecule?
A: 9.81%

Q: And the viability, T/C [33]?
A: 5.67%

Q: What about the viability, T/C [34] of the same molecule?
A: 4.89%

Q: What about the viability, T/C [35] of the same molecule?
A: 4.53%

Q: What about the viability, T/C [36] of the same molecule?
A: 2.17%

Q: For Nc1ccn(C2OC(CO)C(O)C2(F)F)c(=O)n1 (stereo unspecified) + CCn1c(-c2cc(N3CCN(C)CC3)cnc2C(C)OC)c2c3cc(ccc31)-c1csc(n1)CC(NC(=O)C1CC1C)C(=O)N1CCCC(N1)C(=O)OCC(C)(C)C2, which IC50 (second compound 0.000949 µM) is on record?
A: 181 nM

Q: What about the IC50 (second compound 0.003 µM) of the same molecule?
A: 177 nM

Q: What about the IC50 (second compound 0.00949 µM) of the same molecule?
A: 128 nM

Q: And the IC50 (second compound 0.03 µM)?
A: 141 nM

Q: And the IC50 (second compound 0.0949 µM)?
A: 80 nM

Q: And the IC50 (second compound 0.3 µM)?
A: < 3.16 nM

Q: What about the viability, T/C (second compound 0.000949 µM, first compound 0.00316 µM) of the same molecule?
A: 98.9%

Q: What about the viability, T/C (second compound 0.000949 µM, first compound 0.01 µM) of the same molecule?
A: 108%

Q: What about the viability, T/C [1] of the same molecule?
A: 80.5%

Q: And the viability, T/C [2]?
A: 75.7%

Q: What about the viability, T/C [3] of the same molecule?
A: 23.7%

Q: What about the viability, T/C [4] of the same molecule?
A: 27.7%

Q: What about the viability, T/C (second compound 0.003 µM, first compound 0.00316 µM) of the same molecule?
A: 110%

Q: What about the viability, T/C (second compound 0.003 µM, first compound 0.01 µM) of the same molecule?
A: 91%

Q: And the viability, T/C [7]?
A: 82%

Q: And the viability, T/C [8]?
A: 75.7%

Q: And the viability, T/C [9]?
A: 18.9%

Q: What about the viability, T/C [10] of the same molecule?
A: 29.3%

Q: What about the viability, T/C (second compound 0.00949 µM, first compound 0.00316 µM) of the same molecule?
A: 95%

Q: What about the viability, T/C (second compound 0.00949 µM, first compound 0.01 µM) of the same molecule?
A: 101%

Q: What about the viability, T/C [13] of the same molecule?
A: 66.7%

Q: What about the viability, T/C [14] of the same molecule?
A: 69.5%

Q: What about the viability, T/C [15] of the same molecule?
A: 17.6%

Q: What about the viability, T/C [16] of the same molecule?
A: 24.9%

Q: What about the viability, T/C (second compound 0.03 µM, first compound 0.00316 µM) of the same molecule?
A: 97.9%

Q: What about the viability, T/C (second compound 0.03 µM, first compound 0.01 µM) of the same molecule?
A: 86.8%

Q: What about the viability, T/C [19] of the same molecule?
A: 75.5%

Q: What about the viability, T/C [20] of the same molecule?
A: 63.6%

Q: And the viability, T/C [21]?
A: 15.3%

Q: And the viability, T/C [22]?
A: 21.6%

Q: What about the viability, T/C (second compound 0.0949 µM, first compound 0.00316 µM) of the same molecule?
A: 80.2%

Q: And the viability, T/C (second compound 0.0949 µM, first compound 0.01 µM)?
A: 80%

Q: And the viability, T/C [25]?
A: 64.4%

Q: What about the viability, T/C [26] of the same molecule?
A: 49.9%

Q: And the viability, T/C [27]?
A: 10.8%

Q: And the viability, T/C [28]?
A: 17.4%

Q: And the viability, T/C (second compound 0.3 µM, first compound 0.00316 µM)?
A: 40.9%

Q: What about the viability, T/C (second compound 0.3 µM, first compound 0.01 µM) of the same molecule?
A: 46.2%

Q: What about the viability, T/C [31] of the same molecule?
A: 28.5%

Q: And the viability, T/C [32]?
A: 25.1%

Q: And the viability, T/C [33]?
A: 14.6%

Q: And the viability, T/C [34]?
A: 10.3%
